Experimental findings from ChEMBL document CHEMBL5653615 (J Biol Chem, 2013) are described below.

Broadly, the inhibition is the change of the read-out against control, counted positive when it falls.

Experiment [1] deals with Glycogen synthase kinase-3 alpha (Homo sapiens) (UniProt P49840). In words: Inhibition of human GSK3a at 1.82 nM by HotSpot assay relative to control.
Experiment [2] deals with T1, Serine/threonine-protein kinase ULK1 (Homo sapiens) (UniProt O75385).
T1 sequence (whole entry): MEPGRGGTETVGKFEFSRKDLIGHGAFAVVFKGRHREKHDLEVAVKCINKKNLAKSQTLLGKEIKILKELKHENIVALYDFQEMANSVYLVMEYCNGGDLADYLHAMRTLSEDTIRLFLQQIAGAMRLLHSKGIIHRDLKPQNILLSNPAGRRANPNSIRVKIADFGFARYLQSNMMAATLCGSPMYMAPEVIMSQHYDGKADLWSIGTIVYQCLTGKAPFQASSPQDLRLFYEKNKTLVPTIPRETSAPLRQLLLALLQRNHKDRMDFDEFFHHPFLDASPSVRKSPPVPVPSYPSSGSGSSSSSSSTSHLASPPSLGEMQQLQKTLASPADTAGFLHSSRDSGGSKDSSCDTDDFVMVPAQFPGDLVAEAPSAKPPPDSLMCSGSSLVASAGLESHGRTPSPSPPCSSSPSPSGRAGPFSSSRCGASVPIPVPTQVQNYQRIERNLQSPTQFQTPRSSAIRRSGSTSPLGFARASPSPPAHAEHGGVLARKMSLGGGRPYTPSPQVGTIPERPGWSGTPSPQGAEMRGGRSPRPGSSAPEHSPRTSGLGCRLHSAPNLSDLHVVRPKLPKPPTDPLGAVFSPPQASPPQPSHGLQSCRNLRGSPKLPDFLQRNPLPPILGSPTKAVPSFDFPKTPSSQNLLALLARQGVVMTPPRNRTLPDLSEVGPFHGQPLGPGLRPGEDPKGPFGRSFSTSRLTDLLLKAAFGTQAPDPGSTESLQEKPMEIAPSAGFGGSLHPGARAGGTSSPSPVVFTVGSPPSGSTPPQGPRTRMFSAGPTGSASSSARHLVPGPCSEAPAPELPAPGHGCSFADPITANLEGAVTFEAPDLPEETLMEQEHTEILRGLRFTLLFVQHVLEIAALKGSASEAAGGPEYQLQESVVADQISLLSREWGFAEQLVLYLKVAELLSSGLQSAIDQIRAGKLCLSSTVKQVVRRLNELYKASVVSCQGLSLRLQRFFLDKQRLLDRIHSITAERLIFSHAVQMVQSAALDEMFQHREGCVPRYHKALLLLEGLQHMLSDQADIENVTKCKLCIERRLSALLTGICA
In words: Inhibition of human ULK1 at 1.82 nM by HotSpot assay relative to control.

Experiment [3] deals with PAS domain-containing serine/threonine-protein kinase (Homo sapiens) (UniProt Q96RG2). The experiment can be described thus: Inhibition of human PASK at 1.82 nM by HotSpot assay relative to control.
For experiment [4], the target named is Protein kinase C beta type (Homo sapiens) (UniProt P05771). The experiment can be described thus: Inhibition of human PKCb1 at 1.82 nM by HotSpot assay relative to control.
Experiment [5] concerns the target T2, Inhibitor of nuclear factor kappa-B kinase subunit beta (Homo sapiens) (UniProt O14920).
T2 sequence (whole entry): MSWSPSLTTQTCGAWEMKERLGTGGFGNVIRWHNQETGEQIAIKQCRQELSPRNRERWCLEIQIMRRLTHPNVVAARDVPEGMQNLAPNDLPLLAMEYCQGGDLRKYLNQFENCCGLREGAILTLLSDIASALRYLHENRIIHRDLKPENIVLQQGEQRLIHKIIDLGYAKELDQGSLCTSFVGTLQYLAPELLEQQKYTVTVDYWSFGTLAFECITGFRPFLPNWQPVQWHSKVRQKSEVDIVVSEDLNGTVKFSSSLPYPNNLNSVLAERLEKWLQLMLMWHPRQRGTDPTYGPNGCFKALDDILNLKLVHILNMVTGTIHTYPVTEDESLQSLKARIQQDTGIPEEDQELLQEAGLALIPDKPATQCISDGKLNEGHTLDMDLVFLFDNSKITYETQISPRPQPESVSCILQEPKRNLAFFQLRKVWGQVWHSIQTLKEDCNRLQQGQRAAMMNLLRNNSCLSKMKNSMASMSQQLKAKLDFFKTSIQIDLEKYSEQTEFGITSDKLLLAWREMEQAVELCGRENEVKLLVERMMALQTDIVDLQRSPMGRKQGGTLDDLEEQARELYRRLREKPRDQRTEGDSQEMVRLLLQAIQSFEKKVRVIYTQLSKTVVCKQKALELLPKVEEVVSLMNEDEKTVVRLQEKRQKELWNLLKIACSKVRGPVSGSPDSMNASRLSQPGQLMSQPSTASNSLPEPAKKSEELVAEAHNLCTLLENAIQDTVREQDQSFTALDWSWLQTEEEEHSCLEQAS
The experiment can be described thus: Inhibition of human IKKb at 500 nM by HotSpot assay relative to control.

For experiment [6], the target named is Serine/threonine-protein kinase PAK 5 (Homo sapiens) (UniProt Q9P286). In words: Inhibition of human PAK5 at 18.6 nM by HotSpot assay relative to control.
In experiment [7] the target is CDK9/cyclin T1 (Homo sapiens) (UniProt O60563+P50750). The experiment can be described thus: Inhibition of human CDK9/cyclin T1 at 18.6 nM by HotSpot assay relative to control. It counts as protein-complex assay.
Experiment [8] deals with Tyrosine-protein kinase Yes (Homo sapiens) (UniProt P07947). The experiment can be described thus: Inhibition of human YES1 at 18.6 nM by HotSpot assay relative to control.
Chain of Tyrosine-protein kinase Yes (Homo sapiens) (P07947 2-543 limits assumed): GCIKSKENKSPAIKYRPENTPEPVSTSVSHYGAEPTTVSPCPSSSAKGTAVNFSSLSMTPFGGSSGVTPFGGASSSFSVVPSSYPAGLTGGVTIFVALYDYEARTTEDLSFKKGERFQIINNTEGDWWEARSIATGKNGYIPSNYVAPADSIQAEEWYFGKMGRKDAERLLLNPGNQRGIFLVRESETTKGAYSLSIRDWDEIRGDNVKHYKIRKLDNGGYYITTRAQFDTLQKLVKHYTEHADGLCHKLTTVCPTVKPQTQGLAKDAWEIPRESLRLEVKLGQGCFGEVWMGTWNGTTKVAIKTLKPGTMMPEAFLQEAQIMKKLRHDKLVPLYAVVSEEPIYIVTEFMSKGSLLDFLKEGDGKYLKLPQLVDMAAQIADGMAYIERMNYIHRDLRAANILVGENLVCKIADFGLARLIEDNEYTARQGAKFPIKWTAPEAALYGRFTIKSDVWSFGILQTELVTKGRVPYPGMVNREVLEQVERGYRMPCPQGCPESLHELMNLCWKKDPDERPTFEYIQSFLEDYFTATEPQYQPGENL

Chain of Protein kinase C beta type (Homo sapiens) (P05771 2-671 limits assumed): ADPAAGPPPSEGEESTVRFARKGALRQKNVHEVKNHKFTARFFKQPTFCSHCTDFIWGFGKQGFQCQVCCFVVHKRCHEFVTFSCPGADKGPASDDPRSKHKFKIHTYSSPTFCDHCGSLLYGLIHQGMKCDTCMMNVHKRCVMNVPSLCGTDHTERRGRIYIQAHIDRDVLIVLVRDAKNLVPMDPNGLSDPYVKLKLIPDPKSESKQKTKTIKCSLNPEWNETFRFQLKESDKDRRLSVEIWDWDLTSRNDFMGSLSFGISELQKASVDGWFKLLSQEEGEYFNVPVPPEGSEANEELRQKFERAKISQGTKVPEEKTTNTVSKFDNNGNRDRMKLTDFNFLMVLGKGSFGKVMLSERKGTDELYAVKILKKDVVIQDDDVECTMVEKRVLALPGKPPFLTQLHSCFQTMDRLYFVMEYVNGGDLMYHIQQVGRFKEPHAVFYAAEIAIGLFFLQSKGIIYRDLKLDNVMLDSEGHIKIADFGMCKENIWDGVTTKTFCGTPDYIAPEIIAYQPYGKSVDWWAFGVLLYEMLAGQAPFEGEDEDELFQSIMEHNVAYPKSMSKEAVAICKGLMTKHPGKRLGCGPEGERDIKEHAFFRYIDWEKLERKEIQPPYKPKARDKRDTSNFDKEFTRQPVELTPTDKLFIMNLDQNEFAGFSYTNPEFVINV
Chain of PAS domain-containing serine/threonine-protein kinase (Homo sapiens) (Q96RG2 whole entry, the tested form may be a part): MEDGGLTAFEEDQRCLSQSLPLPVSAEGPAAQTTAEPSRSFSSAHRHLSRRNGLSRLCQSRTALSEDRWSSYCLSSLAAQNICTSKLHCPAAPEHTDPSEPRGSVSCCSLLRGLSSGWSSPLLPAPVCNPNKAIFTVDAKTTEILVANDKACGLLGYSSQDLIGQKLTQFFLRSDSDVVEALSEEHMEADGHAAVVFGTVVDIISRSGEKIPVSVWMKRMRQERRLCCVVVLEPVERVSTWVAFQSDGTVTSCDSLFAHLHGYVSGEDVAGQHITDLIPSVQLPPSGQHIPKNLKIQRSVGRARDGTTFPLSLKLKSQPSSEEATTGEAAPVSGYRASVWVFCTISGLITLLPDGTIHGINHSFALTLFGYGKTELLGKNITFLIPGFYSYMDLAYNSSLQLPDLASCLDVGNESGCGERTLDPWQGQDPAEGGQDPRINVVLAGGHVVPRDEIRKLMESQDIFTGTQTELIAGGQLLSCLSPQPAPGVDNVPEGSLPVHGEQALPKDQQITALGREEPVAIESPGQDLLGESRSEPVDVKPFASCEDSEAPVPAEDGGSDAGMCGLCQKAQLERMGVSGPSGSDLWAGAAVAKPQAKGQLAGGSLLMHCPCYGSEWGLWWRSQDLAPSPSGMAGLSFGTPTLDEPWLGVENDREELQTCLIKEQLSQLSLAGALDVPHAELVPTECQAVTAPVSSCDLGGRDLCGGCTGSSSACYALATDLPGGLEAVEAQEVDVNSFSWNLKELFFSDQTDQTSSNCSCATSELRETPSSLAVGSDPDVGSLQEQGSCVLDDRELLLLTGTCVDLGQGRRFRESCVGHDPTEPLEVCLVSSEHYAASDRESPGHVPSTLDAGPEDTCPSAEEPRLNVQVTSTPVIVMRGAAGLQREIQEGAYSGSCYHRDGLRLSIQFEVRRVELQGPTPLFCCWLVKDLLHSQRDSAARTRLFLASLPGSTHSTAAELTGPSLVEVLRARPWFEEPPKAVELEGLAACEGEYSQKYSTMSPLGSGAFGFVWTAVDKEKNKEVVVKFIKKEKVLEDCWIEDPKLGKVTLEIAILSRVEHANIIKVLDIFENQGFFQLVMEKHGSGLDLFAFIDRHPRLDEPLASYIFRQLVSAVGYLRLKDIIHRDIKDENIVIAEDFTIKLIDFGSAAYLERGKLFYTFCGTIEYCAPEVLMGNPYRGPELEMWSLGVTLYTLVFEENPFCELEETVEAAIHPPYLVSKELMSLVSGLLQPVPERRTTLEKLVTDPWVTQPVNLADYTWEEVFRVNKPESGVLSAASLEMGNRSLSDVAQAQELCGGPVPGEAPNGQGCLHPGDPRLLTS
Chain of Serine/threonine-protein kinase PAK 5 (Homo sapiens) (Q9P286 whole entry, looked up): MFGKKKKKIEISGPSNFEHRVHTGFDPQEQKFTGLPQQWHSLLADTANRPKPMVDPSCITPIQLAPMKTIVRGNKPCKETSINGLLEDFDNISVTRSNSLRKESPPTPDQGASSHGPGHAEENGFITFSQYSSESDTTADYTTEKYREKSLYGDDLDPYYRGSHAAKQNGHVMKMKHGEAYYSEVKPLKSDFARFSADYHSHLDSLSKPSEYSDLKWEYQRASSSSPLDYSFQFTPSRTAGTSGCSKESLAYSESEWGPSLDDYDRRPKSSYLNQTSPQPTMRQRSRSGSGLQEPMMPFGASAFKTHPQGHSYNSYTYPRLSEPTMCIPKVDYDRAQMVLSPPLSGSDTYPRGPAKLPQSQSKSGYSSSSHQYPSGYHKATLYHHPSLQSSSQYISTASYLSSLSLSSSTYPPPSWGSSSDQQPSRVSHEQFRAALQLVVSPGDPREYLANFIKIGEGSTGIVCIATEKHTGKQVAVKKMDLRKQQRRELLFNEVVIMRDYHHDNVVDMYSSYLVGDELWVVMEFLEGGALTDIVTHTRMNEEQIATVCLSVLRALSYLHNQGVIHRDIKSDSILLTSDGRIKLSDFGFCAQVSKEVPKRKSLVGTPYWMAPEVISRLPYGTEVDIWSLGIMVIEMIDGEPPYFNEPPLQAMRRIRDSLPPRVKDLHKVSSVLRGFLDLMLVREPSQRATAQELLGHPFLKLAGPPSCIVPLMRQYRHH
Chain of Glycogen synthase kinase-3 alpha (Homo sapiens) (P49840 2-483 limits assumed): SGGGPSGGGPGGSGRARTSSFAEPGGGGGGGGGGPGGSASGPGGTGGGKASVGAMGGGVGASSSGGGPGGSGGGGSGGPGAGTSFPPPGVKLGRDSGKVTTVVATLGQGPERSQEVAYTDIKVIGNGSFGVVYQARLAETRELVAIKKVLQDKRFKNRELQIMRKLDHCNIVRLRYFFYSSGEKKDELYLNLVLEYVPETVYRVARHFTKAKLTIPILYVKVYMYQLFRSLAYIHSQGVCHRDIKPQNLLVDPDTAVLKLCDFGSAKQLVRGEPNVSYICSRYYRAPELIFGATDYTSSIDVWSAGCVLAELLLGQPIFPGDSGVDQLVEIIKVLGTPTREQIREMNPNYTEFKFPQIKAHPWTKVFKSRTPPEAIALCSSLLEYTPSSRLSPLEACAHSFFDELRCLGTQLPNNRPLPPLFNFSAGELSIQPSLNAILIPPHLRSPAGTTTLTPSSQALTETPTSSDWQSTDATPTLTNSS

As to `C[C@@]1(C(=O)Nc2ccc(F)nc2)CCCN1c1nc(Nc2cc(C3CC3)n[nH]2)c2cccn2n1`, the inhibition in experiment [1] is 4.1%; in experiment [2] it was 0.76%; in experiment [3], -2.46%; in experiment [4], -8.94%.

In the case of `Oc1n[nH]c2nnc(-c3c(-c4ccccc4)nn4ccccc34)cc12`, the inhibition in experiment [5] is -0.37%.

`C[C@]1(O)C[C@@H](c2nc(-c3ccc4ccc(-c5ccccc5)nc4c3)c3c(N)nccn32)C1`: the inhibition is -1.6% in experiment [6], 2.42% in experiment [7] and 4.32% in experiment [8].
